Patent US12325697B2 (Nimbus Clio, Inc., priority 2021, dated 2025)

Tests used:
[1] = target: Recombinant human c-Cbl (aa 47-435) (Homo sapiens (Human), UniProt P22681); test: c-Cbl Biochemical Assay (TR-FRET)
Experimental: Recombinant human c-Cbl (aa 47-435) was expressed in E. coli, purified and biotinylated in vitro. The protein was diluted to 12 nM in freshly prepared assay buffer consisting of 50 mM HEPES, pH 7.0, 100 mM NaCl, 5 mM MgCl2, 0.01% Triton-X 100, 0.01% BSA and 1 mM DTT. Recombinant human Src (aa 254-536)-[…]-Zap-70 (aa 281-297) fusion protein was expressed in E. coli and purified. Protein was diluted in assay buffer to 5-20 nM and ATP was added to 1 mM. Recombinant human UBE2D2([…]) was expressed in E. coli, purified and ubiquitinated and Bodipy labelled in vitro. Protein was diluted to 200 nM in assay buffer without MgCl2 (or Cisbio PPI buffer). Streptavidin-Terbium was added to 2 nM and EDTA to 10 mM, to provide a binding assay mix. Compounds were dissolved in DMSO and diluted to prepare a ten-point half log dilution series. 100 nl of each compound concentration was dispensed in duplicate in a 384 well black assay plate using acoustic dispensing. Wells for maximum signal controls received 100 nl of DMSO only and wells for minimum controls received 100 nl of a reference inhibitor compound at a final assay concentration of […] to produce 100% inhibition. 5 μl of diluted c-cbl enzyme was added to all wells of the assay plate and incubated at RT for 30 min. The enzyme assay was initiated by addition of 5 μl of Src-Zap/ATP mix to all wells, and the plate incubated at RT for 60-90 min. The enzyme reaction was terminated and the binding reaction was initiated by adding 10 μl of binding assay mix to all wells and incubating the plate at RT for 60 min prior to assay read. Final assay conditions consisted of 6 nM c-cbl, 2.5-10 nM Src-Zap70, 0.5 mM ATP, 1% (v/v) DMSO (enzyme reaction) and 100 nM UBE2D2([…])-Ub-FL-BODIPY, 5 mM EDTA, 1 nM Streptavidin-Tb (binding reaction). The HTRF assay signal was measured at 520 nm on an Envision plate reader, with reference signal at 485 or 620 nm. Data was normalized using maximum and minimum assay controls: % Inhibition=100-(100*((maximum control)-unknown)/(maximum control-minimum control)). A 4-parameter dose-response equation was used to fit the normalized dose-response data and derive an IC50 for test compounds.

[2] = target: Recombinant human Cbl-b (aa 36-427) (Homo sapiens (Human), UniProt Q13191); test: Cbl-b Biochemical Assay (TR-FRET); settings: read-out: TR-FRET hCbl-b IC50
Recombinant human Cbl-b (aa 36-427), sequence (Q13191 36-427): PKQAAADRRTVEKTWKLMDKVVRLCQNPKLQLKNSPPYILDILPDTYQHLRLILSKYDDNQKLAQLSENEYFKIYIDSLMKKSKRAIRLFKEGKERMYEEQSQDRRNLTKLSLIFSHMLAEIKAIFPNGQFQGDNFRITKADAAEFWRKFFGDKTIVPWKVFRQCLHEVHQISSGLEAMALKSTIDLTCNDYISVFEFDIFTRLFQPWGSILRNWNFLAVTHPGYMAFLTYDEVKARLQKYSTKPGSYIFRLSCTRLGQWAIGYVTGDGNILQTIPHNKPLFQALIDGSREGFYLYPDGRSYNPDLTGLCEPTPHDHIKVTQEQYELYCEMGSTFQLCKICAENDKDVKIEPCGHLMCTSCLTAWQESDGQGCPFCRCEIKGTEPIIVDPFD
How it was run: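 Two-step TR-FRET: 6 nM biotinylated Cbl-b preincubated 30-60 min with compound, then 60 min at RT with 1-2.5 nM Src-Zap70 and 0.5 mM ATP in HEPES pH 7.0 buffer, 1% DMSO. Stopped with 5 mM EDTA plus 100 nM UBE2D2-Ub-FL-BODIPY and 1 nM streptavidin-Tb, 60 min; 520 nm signal; IC50 from 4-parameter fit.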

Recombinant human c-Cbl (aa 47-435), sequence (P22681 47-435): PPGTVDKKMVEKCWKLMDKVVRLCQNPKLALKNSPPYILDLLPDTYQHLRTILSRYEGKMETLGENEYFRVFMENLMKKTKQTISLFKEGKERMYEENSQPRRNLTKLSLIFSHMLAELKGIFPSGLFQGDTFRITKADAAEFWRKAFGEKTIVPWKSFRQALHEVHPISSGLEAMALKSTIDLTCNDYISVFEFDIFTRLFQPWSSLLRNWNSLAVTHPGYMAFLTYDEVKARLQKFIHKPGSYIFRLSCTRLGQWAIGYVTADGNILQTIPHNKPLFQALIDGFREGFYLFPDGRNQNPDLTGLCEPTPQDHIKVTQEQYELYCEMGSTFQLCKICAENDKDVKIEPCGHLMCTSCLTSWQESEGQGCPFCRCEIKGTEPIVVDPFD

Structure (SMILES) | IC50 [1] [nM] | IC50 [2] [nM]
C#CCOc1ccc(-c2cc(NCC)nc(N3Cc4c(cccc4C(F)(F)F)C3=O)c2)c(-c2nncn2C)c1 [AHU-12, 2-[6-(Ethylamino)-4-[2-(4-methyl-1,2,4-triazol-3-yl)-4-(prop-2-yn-1-yloxy)phenyl]pyridin-2-yl]-4-(trifluoromethyl)-3H-isoindol-1-one] | 200 to 1000 | ≤ 200
Cn1cnnc1-c1cc(C#N)ccc1-c1cc(C2CC2)nc(N2Cc3ccc(CO)cc3C2=O)c1 [AHV-1, 4-{2-Cyclopropyl-6-[6-(hydroxymethyl)-1-oxo-3H-isoindol-2-yl]pyridin-4-yl}-3-(4-methyl-1,2,4-triazol-3-yl)benzonitrile] | ≤ 200 | ≤ 200
CCOc1cc(-c2ccc(Cl)cc2-c2nncn2C)cc(N2Cc3c(cc(CNCC4(O)CCC4)cc3C(F)(F)F)C2=O)n1 [AHW-1, 2-{4-[4-Chloro-2-(4-methyl-1,2,4-triazol-3-yl)phenyl]-6-ethoxypyridin-2-yl}-6-({[(1-hydroxycyclobutyl)methyl]amino}methyl)-4-(trifluoromethyl)-3H-isoindol-1-one] | ≤ 200 | ≤ 200
Cn1cnnc1-c1cc(F)ccc1-c1cc(C2CC2)nc(N2Cc3c(cc(COCCO)cc3C(F)(F)F)C2=O)c1 [AHX-2, 2-(6-Cyclopropyl-4-(4-fluoro-2-(4-methyl-4H-1,2,4-triazol-3-yl)phenyl)pyridin-2-yl)-6-((2-hydroxyethoxy)methyl)-4-(trifluoromethyl)isoindolin-1-one] | ≤ 200 | ≤ 200
Cn1cnnc1-c1ccccc1-c1cc(N2Cc3c(cccc3C(F)(F)F)C2=O)cc2cc[nH]c12 [AHY-5, 2-{7-[2-(4-Methyl-1,2,4-triazol-3-yl)phenyl]-1H-indol-5-yl}-4-(trifluoromethyl)-3H-isoindol-1-one] | 10000 to 50000 | 10000 to 50000
Cn1cnnc1-c1cc(C#N)ccc1-c1cc(C2CC2)nc(N2Cc3ccc(CNCC4COC4)cc3C2=O)c1 [AHZ-2, 4-[2-Cyclopropyl-6-(6-{1[(oxetan-3-ylmethyl)amino]methyl}-1-oxo-3H-isoindol-2-yl)pyridin-4-yl]-3-(4-methyl-1,2,4-triazol-3-yl)benzonitrile] | ≤ 200 | ≤ 200
Cn1cnnc1-c1cc(C#N)ccc1-c1cc(C2CC2)nc(N2Cc3ccc(CNCC4CCC4)cc3C2=O)c1 [AIA-2, 4-[2-(6-{[(Cyclobutylmethyl)amino]methyl}-1-oxo-3H-isoindol-2-yl)-6-cyclopropylpyridin-4-yl]-3-(4-methyl-1,2,4-triazol-3-yl)benzonitrile] | ≤ 200 | ≤ 200
Cn1cnnc1-c1cc(C#N)ccc1-c1cc(C2CC2)nc(N2Cc3ccc(CNCC4CC4)cc3C2=O)c1 [AIB-2, 4-(2-Cyclopropyl-6-(6-(((cyclopropylmethyl)amino)methyl)-1-oxoisoindolin-2-yl)pyridin-4-yl)-3-(4-methyl-4H-1,2,4-triazol-3-yl)benzonitrile] | ≤ 200 | ≤ 200
COc1cc(COCC2(O)CCC2)cc2c1CN(c1cc(-c3ccc(F)cc3-c3nncn3C)cc(C3CC3)n1)C2=O [AIC-11, 2-{6-Cyclopropyl-4-[4-fluoro-2-(4-methyl-1,2,4-triazol-3-yl)phenyl]pyridin-2-yl}-6-{[(1-hydroxycyclobutyl)methoxy]methyl}-4-methoxy-3H-isoindol-1-one] | ≤ 200 | ≤ 200
CO[C@H](C)CNCc1ccc2c(c1)C(=O)N(c1cc(-c3ccc(C#N)cc3-c3nncn3C)cc(C3CC3)n1)C2 [AID-2, 4-{2-Cyclopropyl-6-[6-({[(2R)-2-methoxypropyl]amino}methyl)-1-oxo-3H-isoindol-2-yl]pyridin-4-yl}-3-(4-methyl-1,2,4-triazol-3-yl)benzonitrile] | ≤ 200 | ≤ 200
Cn1cnnc1-c1cc(C#N)ccc1-c1cc(C2CC2)nc(N2Cc3ccc(CNCC(C)(C)O)cc3C2=O)c1 [AIE-1, 4-[2-Cyclopropyl-6-(6-{[(2-hydroxy-2-methylpropyl)amino]methyl}-1-oxo-3H-isoindol-2-yl)pyridin-4-yl]-3-(4-methyl-1,2,4-triazol-3-yl)benzonitrile] | ≤ 200 | ≤ 200
